Results on 13 compounds are retold here after patent US20130252930A1 (BIOMARIN PHARMACEUTICAL INC., priority 2010, published 2013).

Where two headings read alike, the source gives them in different places.

The target of one data set is T1, CYP17 (H295R cells) (Homo sapiens, UniProt P05093).
T1 construct: endogenous in cells; host or cells: H295R cells
T1 sequence (P05093 1-508): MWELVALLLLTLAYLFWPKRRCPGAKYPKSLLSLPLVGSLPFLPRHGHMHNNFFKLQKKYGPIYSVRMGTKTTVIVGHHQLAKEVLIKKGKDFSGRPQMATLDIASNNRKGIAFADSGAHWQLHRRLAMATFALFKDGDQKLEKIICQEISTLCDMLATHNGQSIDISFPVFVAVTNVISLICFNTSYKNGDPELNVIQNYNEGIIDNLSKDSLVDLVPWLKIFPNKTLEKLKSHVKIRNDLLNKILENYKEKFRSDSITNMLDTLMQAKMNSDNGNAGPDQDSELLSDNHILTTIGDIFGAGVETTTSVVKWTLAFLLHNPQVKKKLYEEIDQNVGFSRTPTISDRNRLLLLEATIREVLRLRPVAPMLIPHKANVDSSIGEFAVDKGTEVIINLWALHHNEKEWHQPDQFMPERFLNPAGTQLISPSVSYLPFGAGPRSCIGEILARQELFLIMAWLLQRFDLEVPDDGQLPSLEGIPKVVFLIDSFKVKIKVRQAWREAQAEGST
Briefly: CYP17 cellular assay (IC50), testosterone in H295R cells (Biological Example 7). Conditions: H295R cells. Format: cell-based. How it is done: The assays were performed in 96-well plates. Typically H295R cells were seeded at 4.5×10^4 cells/well in 100 μL Growth Medium containing DMEM/F-12 (Gibco/Invitrogen; 11330-032), 2.5% Nu-Serum (BD Bioscience; 355100) and ITS (BD Bioscience; 354352), and cultured at 37° C., 5% CO2 for 24 hr. The next day, media were carefully removed and cells were washed twice with 200 μL 1×HBSS++. Test compounds were then added to the cells at 100, 10, 1, 0.1 nM final concentrations in 125 μL volume per well in serum-free media containing DMEM/F-12 and ITS+ Premix (BD Bioscience; 354352) with 0.1% methanol. Serum-free media with 0.1% methanol without test compound was used as control. Cells were incubated with compounds at 37° C. for additional 24 hours, and the cultured media from each compound treated well was harvested for measurement of testosterone concentration by ELISA according to manufacturer's instruction (Assay Design). Testosterone concentration of each sample was plotted vs. the concentration of the test compounds.

Data set [1] concerns the target T2, CYP17 (human testicular microsome) (Homo sapiens, UniProt P05093).
T2 construct: using microsomal fraction from human testis (Celsis Cat #S00110) as the enzyme source; tissue Celsis S00110; host or cells: human testis microsomal fraction
T2 sequence (P05093 1-508): T1 sequence (P05093 1-508)
Briefly: CYP17 enzymatic assay (% inhibition at 1 nM) (Biological Example 12). The class given is biochemical.

The target of data set [2] is T2, CYP17 (human testicular microsome). Briefly: CYP17 enzymatic assay (% inhibition at 10 nM), version 1 (Biological Example 5). The class given is biochemical.
Data set [3] has the same target. Briefly: CYP17 enzymatic assay (IC50) (Biological Example 4). The class given is biochemical.
The target of data set [4] is T3, Cyp21 enzyme (Human HEK 293-Cyp21 stable transfected cells) (Homo sapiens, UniProt P08686).
T3 construct: expressed in transfected cells
T3 sequence (P08686 1-495): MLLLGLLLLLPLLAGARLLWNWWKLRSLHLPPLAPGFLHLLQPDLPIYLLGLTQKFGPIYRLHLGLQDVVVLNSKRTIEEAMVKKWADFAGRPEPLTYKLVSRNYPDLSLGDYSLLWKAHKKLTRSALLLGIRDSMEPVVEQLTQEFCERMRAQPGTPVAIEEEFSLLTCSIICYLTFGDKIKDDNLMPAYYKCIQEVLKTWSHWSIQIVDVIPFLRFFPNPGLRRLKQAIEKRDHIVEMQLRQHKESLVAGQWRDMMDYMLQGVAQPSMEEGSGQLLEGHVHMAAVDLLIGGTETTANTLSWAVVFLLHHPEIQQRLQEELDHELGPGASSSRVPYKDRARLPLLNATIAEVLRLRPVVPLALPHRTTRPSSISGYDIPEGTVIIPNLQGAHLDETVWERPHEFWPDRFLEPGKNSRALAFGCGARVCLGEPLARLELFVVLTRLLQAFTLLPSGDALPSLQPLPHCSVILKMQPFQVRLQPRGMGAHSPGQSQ
Briefly: CYP21-HEK293 enzymatic assay (IC50) (Biological Example 11). Format: cell-based.

The nature of data set [5]: Human liver microsome stability assay (Biological Example 8b). Conditions: liver microsomes, pH 7.4. A general note: Liver microsomes are vesicles of endoplasmic reticulum, rich in cytochrome P450 enzymes.
Procedure: The reaction was started with addition of excess NADPH (5 mg/mL, 15 μL in 0.1 M potassium phosphate buffer, 1.0 mM EDTA, pH 7.4), the total volume is 45 μL (compound final concentration was 1 μM). […] 50 μL of the supernatant was transferred from each well into a 96-well sample plate containing 50 μL of ultra-pure water (Millipore) for LC-MS/MS analysis.
Setting [6] is: testosterone, read-out: CYP17 cellular assay IC50 (Biological Example No. 7).
Where [7] appears, read: compound at 1 nM, read-out: CYP17 enzymatic assay % inhibition at 1 nM (Biological Example No. 12).
Where [8] appears, read: testosterone, read-out: Biological Example No. 7: CYP17 cellular assay IC50.
Where [9] appears, read: compound at 1 nM, read-out: Biological Example No. 12: CYP17 enzymatic assay % inhibition at 1 nM.
[10] abbreviates: HEK 293-Cyp21 cells, read-out: CYP21-HEK293 enzymatic assay IC50 (Biological Example No. 11).
Setting [11] is: human testicular microsome, read-out: CYP17 enzymatic assay IC50 (Biological Example No. 4).
The mark [12] stands for this setting: human testicular microsome, read-out: Biological Example No. 4: CYP17 enzymatic assay IC50.
The mark [13] stands for this setting: HEK 293-Cyp21 cells, read-out: Biological Example No. 11: CYP21-HEK293 enzymatic assay IC50.

In general, IC50 refers to the point on the concentration scale where inhibition reaches its midpoint. What is called inhibition is the change of the read-out against control, counted positive when it falls. In the case of `CN(C)CC(=O)O[C@H]1CC[C@@]2(C)C(=CC[C@H]3C4=CC=C(c5cccnc5)[C@@]4(C)CC[C@@H]32)C1` [195′, (3S,10R,13S)-10,13-dimethyl-17-(pyridin-3-yl)-2,3,4,7,8,9,10,11,12,13-decahydro-1H-cyclopenta[a]phenanthren-3-yl 2-(dimethylamino)acetate], the IC50 on CYP17 (H295R cells) (setting [6]) was 15 to 100 nM. Also, the inhibition at 0.001 µM in data set [1] (setting [7]) is above 50%.

Take `C[C@]12CCCC(=O)C1CC[C@@H]1[C@@H]2CC[C@]2(C)C(c3cccnc3)=CC[C@@H]12` (stereo partly drawn) [Compound 89, (10R,13S)-10,13-dimethyl-17-(pyridin-3-yl)-2,3,5,6,7,8,9,11,12,13,14,15-dodecahydro-1H-cyclopenta[a]phenanthren-4(10H)-one]: the IC50 at CYP17 (H295R cells) (testosterone by ELISA, 24 hours, read-out: Biological Example No. 7: CYP17 cellular assay IC50) is below 15 nM; in data set [3] (human testicular microsome, DHEA by ELISA, read-out: Biological Example No. 4: CYP17 enzymatic assay IC50) it was below 11 nM. In addition, in data set [2] (10 nM compound, DHEA by ELISA, read-out: Biological Example No. 5: CYP17 percent inhibition at 10 nM (version 1)), the inhibition at 0.01 µM is above 80%.

On to `C[C@]12CC[C@H]3[C@@H](CC=C4C[C@@H](O)CC[C@@]43C)C1=CC=C2c1cncc(C(F)F)c1` [Compound 272, (3S,10R,13S)-17-(5-(difluoromethyl)pyridin-3-yl)-10,13-dimethyl-2,3,4,7,8,9,10,11,12,13-decahydro-1H-cyclopenta[a]phenanthren-3-ol], for which the 50% inhibitory concentration (IC50) on CYP17 (H295R cells) (setting [8]) was 15 to 100 nM. For the same compound, in data set [1] (setting [9]), the inhibition at 0.001 µM is below 10%.

Usually half-life stands for the time in which the quantity being followed falls by half. A high value points to slow decline. In the case of `C[C@]12CC[C@H]3[C@@H](C=CC4=CC(=O)CC[C@@]43C)C1=CC=C2c1cccnc1` [Compound 289, (10R,13S)-10,13-dimethyl-17-(pyridin-3-yl)-8,9,10,11,12,13-hexahydro-1H-cyclopenta[a]phenanthren-3(2H)-one], the inhibition at 0.001 µM in data set [1] (setting [7]) was above 50%. Moreover, the half-maximal inhibitory concentration (IC50) in data set [4] (setting [10]) was 10 to 100 nM; in data set [3] (setting [11]) it was below 11 nM. The same compound yielded a half-life at 1 μM in data set [5] of 1 to 50 min.

As for `CC1C(O)CC[C@@]2(C)C1CC[C@@H]1[C@@H]2CC[C@]2(C)C(c3cccnc3)=CC[C@@H]12` (stereo partly drawn) [Compound 304, (10R,13S)-4,10,13-trimethyl-17-(pyridin-3-yl)-2,3,4,5,6,7,8,9,10,11,12,13,14,15-tetradecahydro-1H-cyclopenta[a]phenanthren-3-ol], the results for the IC50 (on CYP17 (H295R cells) (setting [8]); in data set [3] (setting [12])) were below 15 nM and below 11 nM, respectively. Besides, in data set [1] (setting [9]), the inhibition at 0.001 µM lay within 10 to 50%.

Consider `C[C@]12CC[C@H]3[C@@H](CCC45CC4C(O)CC[C@]35C)[C@@H]1CC=C2c1cccnc1` (stereo partly drawn) [Compound 314, (4aR,6aS)-4a,6a-dimethyl-7-(pyridin-3-yl)-1a,2,3,4,4a,4b,5,6,6a,9,9a,9b,10,11-tetradecahydro-1H-cyclopenta[a]cyclopropa[j]phenanthren-2-ol], for which the half-inhibitory concentration (IC50) is below 15 nM at CYP17 (H295R cells) (setting [6]) and below 11 nM in data set [3] (setting [11]). In addition, the inhibition at 0.001 µM in data set [1] (setting [7]) is above 50%.

On to `CC1C[C@H]2C3=CC=C(c4cccnc4)[C@@]3(C)CC[C@@H]2[C@@]2(C)CCC(=O)C=C12` (stereo partly drawn) [Compound 315, (10R,13S)-6,10,13-trimethyl-17-(pyridin-3-yl)-6,7,8,9,10,11,12,13-octahydro-1H-cyclopenta[a]phenanthren-3(2H)-one], for which the inhibition at 0.001 µM in data set [1] (setting [9]) is above 50%. For the same compound, the IC50 was below 10 nM in data set [4] (setting [13]) and below 11 nM in data set [3]. In data set [5], the half-life at 1 μM lay within 1 to 50 min.

Regarding `C[C@]12CCC(=O)C=C1C(F)C[C@@H]1[C@@H]2CC[C@]2(C)C(c3cncc(F)c3)=CC[C@@H]12` (stereo partly drawn) [Compound 325, (10R,13S)-6-fluoro-17-(5-fluoropyridin-3-yl)-10,13-dimethyl-6,7,8,9,10,11,12,13,14,15-decahydro-1H-cyclopenta[a]phenanthren-3(2H)-one], in data set [1] (setting [9]), the inhibition at 0.001 µM was above 50%. Also, the results for the concentration for half-maximal inhibition (IC50) in data set [4] (setting [13]) and in data set [3] (setting [12]) were above 1000 nM and below 11 nM, respectively. The compound further registered a half-life at 1 μM in data set [5] of 1 to 50 min.

`CC1C[C@H]2C3=CC=C(c4cccnc4)[C@@]3(C)CC[C@@H]2[C@@]2(C)C=CC(=O)C=C12` (stereo partly drawn) [Compound 349, (10R,13S)-6,10,13-trimethyl-17-(pyridin-3-yl)-6,7,8,9,10,11,12,13-octahydro-3H-cyclopenta[a]phenanthren-3-one]: the inhibition at 0.001 µM in data set [1] (test compound at 1 nM, read-out: CYP17 enzymatic assay percent inhibition at 1 nM (Biological Example No. 12)) is above 50%. The IC50 in data set [4] (HEK 293-Cyp21 stable transfected cells, read-out: CYP21-HEK293 enzymatic assay IC50 (Biological Example No. 11)) is below 10 nM. Moreover, the inhibition at 0.01 µM in data set [2] (test compound at 10 nM, read-out: CYP17 enzymatic assay percent inhibition at 10 nM (Biological Example No. 5)) is above 80%. The half-life at 1 μM in data set [5] lay within 1 to 50 min.

Consider `C[C@]12CCNC(=O)C=C1C(F)CC1C2CC[C@]2(C)C(c3cccnc3)=CCC12` (stereo partly drawn) [Compound 370, (5aR,7aS)-12-fluoro-5a,7a-dimethyl-8-(pyridin-3-yl)-3,4,5,5a,5b,6,7,7a,10,10a,11,12-dodecahydrocyclopenta[5,6]naphtho[1,2-d]azepin-2(10bH)-one], for which the inhibition at 0.001 µM in data set [1] (setting [9]) is above 50%. Also, the IC50 in data set [4] (setting [13]) was above 1000 nM; in data set [3] (setting [12]), below 11 nM. Further, the half-life at 1 μM in data set [5] lay in the range of 1 to 50 min.

For the compound `C[C@]12CCNC(=O)C=C1C1CC1[C@@H]1[C@@H]2CC[C@]2(C)C(c3cccnc3)=CC[C@@H]12` (stereo partly drawn) [Compound 382, (5aR,7aS)-5a,7a-dimethyl-8-(pyridin-3-yl)-3,4,5,5a,5b,6,7,7a,10,10a,10b,10c,11,11a-tetradecahydro-2H-cyclopenta[5,6]cyclopropa[3,4]naphtho[1,2-d]azepin-2-one], in data set [1] (setting [9]), the inhibition at 0.001 µM is above 50%. The IC50 in data set [4] (setting [13]) was above 100 nM; in data set [3] (setting [12]) it was below 11 nM. The same compound came in with a half-life at 1 μM in data set [5] of 1 to 50 min.

For the compound `C[C@]12CCC3C(CCC4=CC(=O)CC[C@@]43C)C1=CC=C2c1cncnc1` (stereo partly drawn) [Compound 471, (10R,13S)-10,13-dimethyl-17-(pyrimidin-5-yl)-6,7,8,9,10,11,12,13-octahydro-1H-cyclopenta[a]phenanthren-3(2H)-one], the inhibition at 0.001 µM in data set [1] (setting [7]) was above 50%. Besides, the 50% inhibitory concentration (IC50) in data set [4] (setting [10]) was 10 to 100 nM; in data set [3] (setting [11]), below 11 nM. In data set [5], this compound showed a half-life at 1 μM of 1 to 50 min.

For `CCC1CC2C3=CC=C(c4cccnc4)[C@@]3(C)CCC2[C@@]2(C)CCC(=O)C=C12` (stereo partly drawn) [Compound 482, (10R,13S)-6-ethyl-10,13-dimethyl-17-(pyridin-3-yl)-6,7,8,9,10,11,12,13-octahydro-1H-cyclopenta[a]phenanthren-3(2H)-one], in data set [1] (setting [9]), the inhibition at 0.001 µM lay in the range of 10 to 50%. Further, the values for the IC50 in data set [4] (setting [13]) and in data set [3] were 10 to 100 nM and below 11 nM, respectively. The half-life at 1 μM in data set [5] is 1 to 50 min.
